Assay results reported in patent publication US9072293B2, “Cyclopropenes and method for applying cyclopropenes to agricultural products or crops” (Erum Biotechnologies Inc., priority 2010, dated 2015).
Where “and” joins values, the source holds several entries; their conditions need not be identical. Equal values may be shown once.

Columns and labels:
[1] = Relative chemical stability of cyclopropenes measured by 1H-NMR; assay type: physicochemical; details: 1H-NMR, CDCl3, stored at −20° C. or room temperature; relative to chain length 1
Description: A variety of analysis methods can be used to analyze the derivatives of Formula 6, since the absorbance of cyclopropenes containing an aryl group can be easily measured in the UV range. It can be confirmed that the chemical stability of the derivatives increases, when the length of chains to link an aryl ring to a cyclopropene ring is 2 or more. […] It is supposed that the stability of cyclopropenes increase due to the fact that π electrons of aryl groups affect π electrons of cyclopropenes.
The following Table 1 summarizes the relative chemical stability of cyclopropenes having a chain length of 2, 3, 4 or 5, based on the chemical stability of cyclopropenes having a chain length of 1. In the case of cyclopropene having a chain length of 1, the structure thereof can be confirmed via ^1H-NMR within one hour following synthesis (degraded to a level of 50% or more within one hour at 30° C.). In the case of cyclopropene having a chain length of zero, synthesis thereof was attempted in accordance with the present invention, but was impossible by a conventional method. Meanwhile, in the case of cyclopropenes having a chain length of 2 or more, the structure thereof can be precisely confirmed by ^1H-NMR as well as ^13C-NMR. The stability of these cyclopropenes was measured by ^1H-NMR while NMR cells (CDCl3) were stored at −20° C. or room temperature. In particular, cyclopropenes having chains of 3 or more were so stable that their half-life reached 5 days or longer at −20° C. or lower. In ^1H-NMR analysis, the stability was evaluated by comparing integral values at 4 to 6.5 ppm (1H) and 0.8 to 0.9 ppm (2H), characteristic peaks of 1-alkylcyclopropenes, using a small amount of 1,1,3,3-tetramethylurea (2.80 ppm) as an internal standard. Furthermore, the stability was also qualitatively evaluated by comparing integral value of the peak newly generated adjacent to the peak of the olefin proton of cyclopropene ring, as a 1-alkylcyclopropene compound is decomposed.

tomato = assay: Experimental Example 3: Efficacy test on tomato for other drugs (emulsion and oil-based formulation); assay type: in vivo; details: individual tomatoes n=4
Procedure: At this time, the tops of tomatoes most early turned red, while the bottoms thereof most lately turned red. For this reason, in order to accurately evaluate the difference in reddening, the coloring evaluated was based on the area of red color, rather than the color of tomatoes. […] Accordingly, the grade level is proportional to the rate at which the tomatoes ripened.
1.0 mM emulsions and oil-based formulations of four agents, i.e., 1-(2-(4-methoxyphenyl)ethyl)cyclopropene, 1-(3-(4-methoxyphenyl)propyl)cyclopropene, 1-(3-phenoxypropyl)cyclopropene and 1-(4-phenoxybutyl)cyclopropene were prepared in accordance with Examples 1 and 2.
The tomatoes were screened in the same manner as in Experimental Example 1 and divided into 9 groups (n=4), i.e., a non-treated group and 4 emulsion-type agent groups and 4 oil-based formulation-type agent groups. Tomatoes were treated with the previously prepared agent using a household sprayer such that the surface thereof was saturated. The tomatoes were stood at room temperature (25-30° C.) for 3 days and a reddening level thereof was evaluated based on grades of 0 to 5.

Stability (relative chemical stability, based on cyclopropenes having a chain length of 1) [1]: >>10
SMILES: COc1ccc(CCCC2=CC2)cc1 [(3-(4-Methoxyphenyl)propyl), 1-(3-(4-methoxyphenyl)propyl)cyclopropene]
reddening level (grade 0 to 5) (tomato; 1.0 mM Emulsion, Day 0, room temperature (25-30° C.)): 0 (an area in which the surface of tomato was colored in pink was 10% or less) (2×) and 1 (an area in which the surface of tomato was completely colored in red was 10 to 40%) and 2 (an area in which the surface of tomato was completely colored in red was 40 to 70%) | reddening level (grade 0 to 5) (tomato; 1.0 mM Emulsion, Day 1, room temperature (25-30° C.)): 0 (an area in which the surface of tomato was colored in pink was 10% or less) (2×) and 1 (an area in which the surface of tomato was completely colored in red was 10 to 40%) and 2 (an area in which the surface of tomato was completely colored in red was 40 to 70%) | reddening level (grade 0 to 5) (tomato; 1.0 mM Emulsion, Day 2, room temperature (25-30° C.)): 1 (an area in which the surface of tomato was completely colored in red was 10 to 40%) (2×) and 2 (an area in which the surface of tomato was completely colored in red was 40 to 70%) and 3 (an area in which the surface of tomato was completely colored in red was 70% or more and the bottom area remained green) | reddening level (grade 0 to 5) (tomato; 1.0 mM Emulsion, Day 3, room temperature (25-30° C.)): 2 (an area in which the surface of tomato was completely colored in red was 40 to 70%) (2×) and 3 (an area in which the surface of tomato was completely colored in red was 70% or more and the bottom area remained green) and 4 | reddening level (grade 0 to 5) (tomato; 1.0 mM Oil-based formulation, Day 0, room temperature (25-30° C.)): 0 (an area in which the surface of tomato was colored in pink was 10% or less) (2×) and 1 (an area in which the surface of tomato was completely colored in red was 10 to 40%) and 2 (an area in which the surface of tomato was completely colored in red was 40 to 70%) | reddening level (grade 0 to 5) (tomato; 1.0 mM Oil-based formulation, Day 1, room temperature (25-30° C.)): 0 (an area in which the surface of tomato was colored in pink was 10% or less) (2×) and 1 (an area in which the surface of tomato was completely colored in red was 10 to 40%) and 2 (an area in which the surface of tomato was completely colored in red was 40 to 70%) | reddening level (grade 0 to 5) (tomato; 1.0 mM Oil-based formulation, Day 2, room temperature (25-30° C.)): 1 (an area in which the surface of tomato was completely colored in red was 10 to 40%) (2×) and 2 (an area in which the surface of tomato was completely colored in red was 40 to 70%) and 3 (an area in which the surface of tomato was completely colored in red was 70% or more and the bottom area remained green) | reddening level (grade 0 to 5) (tomato; 1.0 mM Oil-based formulation, Day 3, room temperature (25-30° C.)): 1 (an area in which the surface of tomato was completely colored in red was 10 to 40%) and 2 (an area in which the surface of tomato was completely colored in red was 40 to 70%) and 3 (an area in which the surface of tomato was completely colored in red was 70% or more and the bottom area remained green) (2×)
